Data taken from paper PMC10970593, “Jozimine A2, a Dimeric Naphthylisoquinoline (NIQ) Alkaloid, Shows In Vitro Cytotoxic Effects against Leukemia Cells through NF-κB Inhibition” (International Journal of Molecular Sciences, 2024).
Where two headings read alike, the source gives them in different places.

Target: T1, NF-κB (human recombinant; p65 subunit used in docking) (Homo sapiens, UniProt Q04206)
T1 construct: gene RELA; human recombinant NF-κB protein, Sino Biological cat; No. 12054-H09E
Assay: microscale thermophoresis with labeled recombinant protein
Format: binding

Compound	Kd (read-out: Kd) [nM]	Kd [nM]
COc1cccc2c(-c3ccc4c(c3O)[C@@H](C)N[C@H](C)C4)c(C)c(-c3c(C)c(-c4ccc5c(c4O)[C@@H](C)N[C@H](C)C5)c4cccc(OC)c4c3O)c(O)c12 [jozimine A2]	1660 ± 12	
COc1cc(C)cc2c(-c3c(O)cc(O)c4c3C[C@@H](C)N[C@@H]4C)cc(-c3cc(-c4c(O)cc(O)c5c4C[C@@H](C)N[C@@H]5C)c4cc(C)cc(OC)c4c3O)c(O)c12 [michellamine B]		2800 ± 94
